Reference: patent publication US9180163B2, “Parstatin peptides” (priority 2009, dated 2015)
Like-named read-outs stand apart in the source and are kept apart here.

Assays:
[1] = system: myocardial ischemia-reperfusion injury in Sprague Dawley rats; conditions: for reduction in infarct size: 1 μg/Kg IV bolus
Method: Parstatin (1-41) was used in an in vivo rat model of cardiac ischemia and reperfusion, and in an in vitro isolated rat heart model of ischemia-reperfusion injury.
For in vivo infarct size studies, rats were anesthetized with pentobarbital sodium (50 mg/Kg) and heparin (1000 IU/Kg) and underwent 30 min of regional ischemia followed by 120 min of reperfusion. Parstatin (1-41) was administered-intravenously over 1 min starting 15 min prior to ischemia, or 15 min after the onset of ischemia, or 10 seconds after the onset of reperfusion in separate series of experiments (n=6/group).
To induce ischemia, ligature was positioned around the left main coronary artery and threaded through a plastic snare to permit reversible occlusion of the coronary artery. Coronary occlusion was induced by clamping the snare onto the heart and reperfusion was achieved by releasing the snare. At the end of reperfusion, the coronary artery was re-occluded and the risk zone was delineated by perfusion of 0.5% Evans' blue into the aortic cannula. Hearts were sectioned and incubated in 1% triphenyltetrazolium chloride in phosphate buffer for 15 min to define white necrotic tissue when fixed in 10% formalin for 24 h. Area at risk (AAR) and infarct-to-risk rations were determined by computerized planimetry using J-Image v.i.6 software (NIH, Bethesda, Mass.).
For in vivo infarct size/ischemia-reperfusion studies, rats were anesthetized with pentobarbital sodium (50 mg/Kg) and heparin (1000 IU/Kg) and underwent 30 min of regional ischemia followed by 120 min of reperfusion. Human hydrophobic parstatin (1-26) fragment was administered intravenously over 1 min at one of three time points: 1) starting 15 min prior to ischemia, 2) 15 min after the onset of ischemia, or 3) 10 seconds after the onset of reperfusion in a separate series of experiments (n=6/group).
Ischemia was induced by placement of a ligature around the left main coronary artery which was threaded through a plastic snare to permit reversible occlusion of the coronary artery. Coronary occlusion was induced by clamping the snare onto the heart and reperfusion was achieved by releasing the snare. At the end of reperfusion, the coronary artery was re-occluded and the risk zone was delineated by perfusion 0.5% Evans' blue into the aortic cannula.
Hearts were sectioned and incubated in 1% triphenyltetrazolium chloride in phosphate buffer for 15 min to define white necrotic tissue when fixed in 10% formalin for 24 h. Area at risk (AAR) and infarct-to-risk rations were determined by computerized planimetry using J-Image v.i.6 software (NIH, Bethesda, Mass.). The principal endpoint of these studies was infarct size expressed as a percentage of the area at risk.

[2] = system: renal ischemia-reperfusion injury in Wistar rats
Method: Pathogen-free male Wistar rats weighting 250-300 g were used and treated in compliance with the “Guide for the Care and Use of Laboratory Animals” published by the US National Institutes of Health (NIH Publication NO. 85-23, revised 1996).
Rats were anesthetized with intramuscular injection of ketamine (25 mg/Kg) and xylazine hydrochloride (10 mg/Kg). After a midline laparotomy, the renal pedicles were identified and bilaterally occluded for a period of 45 min using nontraumatic microaneurysm clamps. The presence of ischemia was visually confirmed by observing blanching of the kidneys. Sham-operated rats were subjected to identical surgical procedures without causing renal ischemia by application of microaneurysm clamps. At the end of ischemia period the clamps were removed and renal reperfusion was established. All rats were killed 4 hours after the initiation of reperfusion.
Urine was collected during reperfusion, and at the end of the experiments blood samples were taken and analyzed for biochemical markers of renal impairment. Serum creatinine levels were measured as an indicator of glomerular function. Urine concentrations of Na^+ were determined and used in conjunction with serum Na^+ concentrations to estimate FENa which was used as a sensitive indicator of tubular function.
For histological assessment of renal ischemia-reperfusion injury, the rat kidneys were removed 4 hours after reperfusion, fixed in 10% formalin, embedded in paraffin, sectioned (5-μm thicknesses), and stained with haematoxylin and eosin. Tubular injury was identified by the presence of any of flattened tubular cells, loss of brush border, and cast formation. Ten high-powered fields (hpf's; ×400 magnification) from the outer medulla and corticomedullary junction were examined from each animal to determine the percentage of tubules showing evidence of injury and scored according to the following scale: 0, no injury; 1, less than 10%; 2, 10% to 25%; 3, 26% to 75%; 4, greater than 75%. The 10 scores were averaged to give the tubular injury score for each specimen.

[3] = system: Akt (Ser473), endothelial NOS (Ser1177); assay: immunoblot of phospho-Akt and phospho-eNOS in left ventricle after ischemia-reperfusion; assay type: in vivo, rat
Method: To determine whether the cardioprotective effect of parstatin (1-26) is mediated through the PI3K/Akt pathway, rats were treated with wortmannin (15 μg/Kg, a potent and specific PI3K inhibitor) alone or in combination with parstatin fragment 1-26 (1 μg/Kg). Wortmannin abrogated the cardioprotective effects of parstatin (1-26) (FIG. 24B). In addition, the left ventricular free wall tissue was homogenized and immunoblot analysis was performed using an anti-phospho-Akt (Ser473) primary antibody (Cell Signaling Technology, Danvers, Mass.). […] Co-treatment with wortmannin blocked parstastin (1-26)-mediated Akt phorsphorylation (FIG. 24C).
(§1) To determine whether parstatin (1-26) protects the heart by a mechanism involving nitric oxide synthase (NOS), rats were treated with L-NMA (15 μg/Kg, a general NOS inhibitor), with or without parstatin (1-26) (1 μg/Kg) prior to ischemia. […] The role of parstatin (1-26) in endothelial NOS activation was further evaluated by measuring the phosphorylation of Ser1177. In these experiments, the left ventricular free wall tissue was homogenized and immunoblot analysis was performed using an anti-phospho-endothelial NOS (Ser1177) primary antibody (Cell Signaling Technology, Danvers, Mass.). […] In addition, nitrite and nitrate content, a marker of endothelial NOS activity, was measured from both ischemic and non-ischemic tissues. Ischemia and 120 min reperfusion caused an increase in the production of NO in the ischemic tissue from the control group when compared to the sham group (FIG. 25D). […] Pre-ischemic treatment with parstatin (1-26) further increased NO content in the ischemic tissue by an additional 1.4-fold over control values and 2.0-fold over sham treated values.

[4] = system: nitric oxide content of myocardium; assay: myocardial nitrite and nitrate content after ischemia-reperfusion; assay type: in vivo, rat; conditions: 1 μg/kg pre-ischemic
Method: as §1

[5] = system: HUVEC cells; assay: Matrigel capillary tube-like formation; assay type: cell-based, human; conditions: 5% FBS, 18 h; parstatin (1-41) 0.3 to 10 μM, other peptides 10 μM
Method: Primary human umbilical vein endothelial cells (HUVEC cells) were obtained from freshly delivered umbilical cords from caesarean births and were grown in M199 medium with 20% fetal bovine serum (FBS) supplemented with endothelial cell growth supplement and heparin. One of the most specific tests for angiogenesis is the measurement of the ability of endothelial cells to form capillary-like structures (i.e., tube formation). Tube formation is a multi-step process involving cell adhesion, migration and differentiation. Tube formation can be enhanced by use of Matrigel or fibrin clots to coat plastic culture dishes and it is an accepted model of angiogenesis.
Matrigel™ (Becton Dickinson Labware, N.J., USA) is a mixture of basement membrane components extracted from the Englebreth-Holm-Swarm tumor. […] Matrigel™ (250 μl) was added to each well of a 24-well plate and allowed to polymerize. A suspension of 40,000 HUVEC cells in M199 medium containing 5% FBS was added into each well coated with Matrigel™.
Cells were treated with increasing concentrations of human parstatin (1-41), scrambled parstatin, or parstatin (24-41) fragment. After 18 hours of incubation, the medium was removed, and the cells were fixed and stained, and tube-like structures were quantitated.

[6] = system: HUVEC cells; assay: Fibrin gel in vitro angiogenesis assay; assay type: cell-based, human; conditions: VEGF/bFGF-induced, 24 h; other peptides 10 μM
Method: The ability of endothelial cells to form three-dimensional structures was analyzed using a Fibrin gel in vitro angiogenesis assay kit (Chemicon International Inc. Temecula, Calif.). Fibrin gels were formed in 48-well plates by mixing fibrinogen and thrombin solutions, according to manufacturer instructions. Cells (40,000 cells/well) were then added and cultured in medium containing 2% FBS for 18 h. After the addition of a second layer of fibrin gel, endothelial cells sandwiched within fibrin gels were cultured in serum-free medium containing 0.5% bovine serum albumin (BSA) and the combination of VEGF/bFGF for 24 h. Where indicated, parstatin (1-41) or other indicated peptides were added. Capillary-like network was photographed and measured.

[7] = system: HUVEC cells; assay: [3H]-thymidine incorporation (DNA synthesis); assay type: cell-based, human; conditions: serum, bFGF or VEGF; comparison peptides 10 μM
Method: The ability of parstatin (1-41) to inhibit DNA synthesis of endothelial cells was assessed in thymidine incorporation assays. HUVEC cells were grown until 60-80% confluent in 24-well plates. Cells were treated with indicated peptides in serum-free medium containing either 0.5% BSA, or VEGF, or bFGF, or medium containing 5% FBS, or epidermal growth factor (EGF), or heparin-binging EGF (HB-EGF) for 18 hours. All cells were pulsed with 0.5 μCi/ml [3H]-thymidine (ICN Biomedicals Inc., Irvine Calif.) for additional 6 h. Radioactivity incorporated into DNA was determined in liquid scintillation counter.

[8] = parstatin (1-26) IV 10 seconds after initiation of reperfusion

In the case of “MGPRRLLLVAACFSLCGPLLSARTRA (listed as Homo sapiens) [parstatin (1-26)]”, the “reduction in infarct size” value ([1]; 10 seconds after initiation of reperfusion) is reported as 62%, the “reduction in infarct size” value ([1]; 15 min after the onset of ischemia) is reported as 73% and the “infarct sparing effect with L-NMA” value ([1]; 1 μg/Kg, L-NMA 15 μg/Kg) is reported as “abolished”. The “infarct size in the presence of pertussis toxin” value ([1]; 1 μg/Kg, pertussis toxin 25 μg/Kg 48 hours prior) was “unable to reduce infarct size”, the “cardioprotective effects with wortmannin” value ([1]; 1 μg/Kg, wortmannin 15 μg/Kg) was “abrogated” and the “reduction in infarct size with ODQ” value ([1]; 1 μg/kg, ODQ 1 mg/kg) was “abolished”. The “reduction in infarct size compared with control” value ([1]; 10 μg/Kg IV 15 min prior to ischemia) was 78%, the infarct size ([1]; 10 μg/Kg IV 15 min prior to ischemia, 30 min ischemia, 120 min reperfusion) was 13±1 % of the area at risk and the “cardioprotective effects with 5-HD” value ([1]; 5-HD 10 mg/Kg) was “blocked”. For the same sequence, the “cardioprotective effects with HMR 1098” value ([1]; HMR 1098 6 mg/kg) was “blocked”, the cardioprotection with atractyloside ([1]; atractyloside 3 mg/Kg) was “partial blockage” and the “cardioprotective effect with glibenclamide” value ([1]; glibenclamide 3 mg/kg) was “completely diminished”. The “baseline hemodynamics (heart rate, blood pressures) between groups” value ([1]; rat, in vivo) was “no significant differences”, the “histological scoring of renal injury” value ([2]; 10 μg/Kg) was “significantly reduced” and the “reduction of FENa” value ([2]; 10 μg/Kg IV pre-ischemic) was 66%. For the same sequence, the “reduction of serum creatinine” value ([2]; 10 μg/Kg IV pre-ischemic) was 27%, the “reduction of FENa” value [2, 8] was 72% and the “reduction of serum creatinine” value [2, 8] was 30%. The “phosphorylation of Akt/Ser473” value ([3]; 1 μg/kg pre-ischemic, 5 min reperfusion, vs control rats) was “increased phosphorylation”, the “endothelial NOS phosphorylation (Ser1177)” value ([3]; 1 μg/kg, 5 min reperfusion) was “increased endothelial NOS phosphorylation” and the “Ser1177 phosphorylation with wortmannin” value ([3]; wortmannin) was “blocked”. The “Akt phosphorylation with wortmannin co-treatment” value ([3]; wortmannin 15 μg/kg) was “blocked”, the “NO levels in non-ischemic tissue compared to control and sham rats” value [4] was “No differences” and the “NO content in the ischemic tissue over control values” ([4]; 120 min reperfusion) was 1.4 fold. For the same sequence, the “NO content in the ischemic tissue over sham treated values” ([4]; 120 min reperfusion) was 2.0 fold.
For “TRARRPESKATNATLDPR (listed as Homo sapiens) [parstatin (24-41), 24-41 (18 amino acids) of human parstatin, hydrophilic fragment]”, the “tube formation on Matrigel” value [5] was “did not affect”, the “capillary-like network (total capillary tube length) in fibrin gels” value [6] was “did not affect” and the “DNA synthesis in HUVEC cells” value [7] was “did not cause any significant effect”.
